Laboratory results from PubChem BioAssay (NCI).
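Tested at 5 concentrations; 48 h exposure; 96-well plates; endpoints linearly interpolated, else capped at highest concentration. The concentration for 50% growth inhibition is given as GI50. TGI marks complete inhibition of growth.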

Assays:
Assay in all cases: NCI tumour cell line growth inhibition, 48 h
HL-60(TB) leukemia = tested on: HL-60(TB) leukemia
BT-549 breast = tested on: BT-549 breast
U251 CNS = tested on: U251 CNS
SK-MEL-28 melanoma = tested on: SK-MEL-28 melanoma
SF-295 CNS = tested on: SF-295 CNS
T-47D breast = tested on: T-47D breast
NCI-H460 lung = tested on: NCI-H460 lung
COLO 205 colon = tested on: COLO 205 colon
NCI-H522 lung = tested on: NCI-H522 lung
LOX IMVI melanoma = tested on: LOX IMVI melanoma
HCT-15 colon = tested on: HCT-15 colon
A498 renal = tested on: A498 renal
UO-31 renal = tested on: UO-31 renal
786-0 renal = tested on: 786-0 renal
SN12C renal = tested on: SN12C renal
ACHN renal = tested on: ACHN renal
CCRF-CEM leukemia = tested on: CCRF-CEM leukemia
MOLT-4 leukemia = tested on: MOLT-4 leukemia
UACC-257 melanoma = tested on: UACC-257 melanoma
SNB-19 CNS = tested on: SNB-19 CNS
CAKI-1 renal = tested on: CAKI-1 renal
UACC-62 melanoma = tested on: UACC-62 melanoma
NCI-H226 lung = tested on: NCI-H226 lung
M14 melanoma = tested on: M14 melanoma
SK-OV-3 ovarian = tested on: SK-OV-3 ovarian
EKVX NSCLC = tested on: EKVX NSCLC
KM12 colon = tested on: KM12 colon
PC-3 prostate = tested on: PC-3 prostate
IGROV1 ovarian = tested on: IGROV1 ovarian
SR leukemia = tested on: SR leukemia
RPMI-8226 leukemia = tested on: RPMI-8226 leukemia
HCC-2998 colon = tested on: HCC-2998 colon
SF-539 CNS = tested on: SF-539 CNS
MDA-MB-231 breast = tested on: MDA-MB-231 breast
HOP-62 NSCLC = tested on: HOP-62 NSCLC
TK-10 renal = tested on: TK-10 renal
A549 NSCLC = tested on: A549 NSCLC
HS 578T breast = tested on: HS 578T breast
NCI-H23 lung = tested on: NCI-H23 lung
OVCAR-4 ovarian = tested on: OVCAR-4 ovarian
HCT-116 colon = tested on: HCT-116 colon
HT29 colon = tested on: HT29 colon
MDA-MB-435 = tested on: MDA-MB-435
OVCAR-5 ovarian = tested on: OVCAR-5 ovarian
SNB-75 CNS = tested on: SNB-75 CNS
HOP-92 NSCLC = tested on: HOP-92 NSCLC
MCF7 breast = tested on: MCF7 breast
K-562 leukemia = tested on: K-562 leukemia
RXF 393 renal = tested on: RXF 393 renal
DU-145 prostate = tested on: DU-145 prostate
SK-MEL-2 melanoma = tested on: SK-MEL-2 melanoma
OVCAR-3 ovarian = tested on: OVCAR-3 ovarian
SW-620 colon = tested on: SW-620 colon
SK-MEL-5 melanoma = tested on: SK-MEL-5 melanoma
MALME-3M melanoma = tested on: MALME-3M melanoma
NCI/ADR-RES ovarian = tested on: NCI/ADR-RES ovarian
SF-268 CNS = tested on: SF-268 CNS
OVCAR-8 ovarian = tested on: OVCAR-8 ovarian

**Q.** Which results are given for `CN(C)C(=S)N=Nc1c(O)[nH]c2ccccc12`?
**A.** GI50 (HL-60(TB) leukemia): 1.32 µM; TGI (HL-60(TB) leukemia): 7.24 µM; GI50 (BT-549 breast): 0.763 µM; TGI (BT-549 breast): 20.8 µM; GI50 (U251 CNS): 0.392 µM; TGI (U251 CNS): 27.6 µM; GI50 (SK-MEL-28 melanoma): 2.57 µM; TGI (SK-MEL-28 melanoma): 22.7 µM; GI50 (SF-295 CNS): 0.315 µM; TGI (SF-295 CNS): 14.2 µM; GI50 (T-47D breast): 0.404 µM; TGI (T-47D breast): 10.2 µM; GI50 (NCI-H460 lung): 0.374 µM; TGI (NCI-H460 lung): 2.49 µM; GI50 (COLO 205 colon): 0.356 µM; TGI (COLO 205 colon): 3.56 µM; GI50 (NCI-H522 lung): 0.355 µM; TGI (NCI-H522 lung): 11 µM; GI50 (LOX IMVI melanoma): 0.46 µM; TGI (LOX IMVI melanoma): 13.5 µM; GI50 (HCT-15 colon): 0.455 µM; TGI (HCT-15 colon): 23.4 µM; GI50 (A498 renal): 6.28 µM; TGI (A498 renal): 20.4 µM; GI50 (UO-31 renal): 0.384 µM; TGI (UO-31 renal): 6.03 µM; GI50 (786-0 renal): 0.891 µM; TGI (786-0 renal): 12.2 µM; GI50 (SN12C renal): 0.578 µM; TGI (SN12C renal): 17.9 µM; GI50 (ACHN renal): 0.526 µM; TGI (ACHN renal): 11.4 µM; GI50 (CCRF-CEM leukemia): 0.298 µM; GI50 (MOLT-4 leukemia): 0.619 µM; TGI (MOLT-4 leukemia): > 49.7 µM; GI50 (UACC-257 melanoma): 2.31 µM; TGI (UACC-257 melanoma): 17 µM; GI50 (SNB-19 CNS): 0.546 µM; TGI (SNB-19 CNS): 15 µM; GI50 (CAKI-1 renal): 0.257 µM; TGI (CAKI-1 renal): 1.26 µM; GI50 (UACC-62 melanoma): 0.578 µM; TGI (UACC-62 melanoma): 4.56 µM; GI50 (NCI-H226 lung): 0.642 µM; TGI (NCI-H226 lung): 6.43 µM; GI50 (M14 melanoma): 0.484 µM; TGI (M14 melanoma): 9.41 µM; GI50 (SK-OV-3 ovarian): 0.79 µM; TGI (SK-OV-3 ovarian): 13.9 µM; GI50 (EKVX NSCLC): 0.397 µM; TGI (EKVX NSCLC): 11 µM; GI50 (KM12 colon): 0.496 µM; TGI (KM12 colon): 12.9 µM; GI50 (PC-3 prostate): 0.566 µM; TGI (PC-3 prostate): 29.7 µM; GI50 (IGROV1 ovarian): 0.508 µM; TGI (IGROV1 ovarian): 7.39 µM; GI50 (SR leukemia): 0.429 µM; TGI (SR leukemia): 9.38 µM; GI50 (RPMI-8226 leukemia): 0.418 µM; TGI (RPMI-8226 leukemia): 33.5 µM; GI50 (HCC-2998 colon): 1.54 µM; TGI (HCC-2998 colon): 17.2 µM; GI50 (SF-539 CNS): 0.499 µM; TGI (SF-539 CNS): 8.39 µM; GI50 (MDA-MB-231 breast): 1.11 µM; TGI (MDA-MB-231 breast): 17.6 µM; GI50 (HOP-62 NSCLC): 0.708 µM; TGI (HOP-62 NSCLC): 14.7 µM; GI50 (TK-10 renal): 0.721 µM; TGI (TK-10 renal): 14.7 µM; GI50 (A549 NSCLC): 0.465 µM; TGI (A549 NSCLC): 18.8 µM; GI50 (HS 578T breast): 2.95 µM; TGI (HS 578T breast): 67.6 µM; GI50 (NCI-H23 lung): 0.656 µM; TGI (NCI-H23 lung): 25 µM; GI50 (OVCAR-4 ovarian): 0.394 µM; TGI (OVCAR-4 ovarian): 5.59 µM; GI50 (HCT-116 colon): 0.303 µM; TGI (HCT-116 colon): 3 µM; GI50 (HT29 colon): 0.558 µM; TGI (HT29 colon): 17 µM; GI50 (MDA-MB-435): 0.757 µM; TGI (MDA-MB-435): 17.3 µM; GI50 (OVCAR-5 ovarian): 1.49 µM; TGI (OVCAR-5 ovarian): 21 µM; GI50 (SNB-75 CNS): 3.01 µM; TGI (SNB-75 CNS): 18.5 µM; GI50 (HOP-92 NSCLC): 0.761 µM; TGI (HOP-92 NSCLC): 15.9 µM; GI50 (MCF7 breast): 0.552 µM; TGI (MCF7 breast): 13.3 µM; GI50 (K-562 leukemia): 0.475 µM; TGI (K-562 leukemia): > 57.8 µM; GI50 (RXF 393 renal): 1.05 µM; TGI (RXF 393 renal): 14.5 µM; GI50 (DU-145 prostate): 0.955 µM; TGI (DU-145 prostate): 11.4 µM; GI50 (SK-MEL-2 melanoma): 0.8 µM; TGI (SK-MEL-2 melanoma): 19.8 µM; GI50 (OVCAR-3 ovarian): 0.261 µM; TGI (OVCAR-3 ovarian): 1.18 µM; GI50 (SW-620 colon): 0.576 µM; TGI (SW-620 colon): 21.6 µM; GI50 (SK-MEL-5 melanoma): 0.626 µM; TGI (SK-MEL-5 melanoma): 12.5 µM; GI50 (MALME-3M melanoma): 1.75 µM; TGI (MALME-3M melanoma): 14.2 µM; GI50 (NCI/ADR-RES ovarian): 0.334 µM; TGI (NCI/ADR-RES ovarian): 2.15 µM; GI50 (SF-268 CNS): 0.593 µM; TGI (SF-268 CNS): 12.6 µM; GI50 (OVCAR-8 ovarian): 0.525 µM; TGI (OVCAR-8 ovarian): 26 µM

**Q.** What does the source list for `O=C1CCCCc2cccc(O)c21`?
**A.** TGI (HL-60(TB) leukemia): > 100 µM; TGI (BT-549 breast): > 100 µM; TGI (U251 CNS): > 100 µM; TGI (SK-MEL-28 melanoma): > 100 µM; TGI (SF-295 CNS): > 100 µM; TGI (T-47D breast): > 100 µM; TGI (NCI-H460 lung): > 100 µM; TGI (COLO 205 colon): > 100 µM; TGI (NCI-H522 lung): > 100 µM; TGI (LOX IMVI melanoma): > 100 µM; TGI (HCT-15 colon): > 100 µM; TGI (A498 renal): > 100 µM; TGI (UO-31 renal): > 100 µM; TGI (786-0 renal): > 100 µM; TGI (SN12C renal): > 100 µM; TGI (ACHN renal): > 100 µM; TGI (CCRF-CEM leukemia): > 100 µM; TGI (MOLT-4 leukemia): > 100 µM; TGI (UACC-257 melanoma): > 100 µM; TGI (SNB-19 CNS): > 100 µM; TGI (CAKI-1 renal): > 100 µM; TGI (UACC-62 melanoma): > 100 µM; TGI (NCI-H226 lung): > 100 µM; TGI (M14 melanoma): > 100 µM; TGI (SK-OV-3 ovarian): > 100 µM; TGI (EKVX NSCLC): > 100 µM; TGI (KM12 colon): > 100 µM; TGI (PC-3 prostate): > 100 µM; TGI (IGROV1 ovarian): > 100 µM; TGI (SR leukemia): > 100 µM; TGI (RPMI-8226 leukemia): > 100 µM; TGI (HCC-2998 colon): > 100 µM; TGI (SF-539 CNS): > 100 µM; TGI (MDA-MB-231 breast): > 100 µM; TGI (HOP-62 NSCLC): > 100 µM; TGI (TK-10 renal): > 100 µM; TGI (HS 578T breast): > 100 µM; TGI (NCI-H23 lung): > 100 µM; TGI (OVCAR-4 ovarian): > 100 µM; TGI (HCT-116 colon): > 100 µM; TGI (HT29 colon): > 100 µM; TGI (MDA-MB-435): > 100 µM; TGI (OVCAR-5 ovarian): > 100 µM; TGI (SNB-75 CNS): > 100 µM; TGI (HOP-92 NSCLC): > 100 µM; TGI (MCF7 breast): > 100 µM; TGI (K-562 leukemia): > 100 µM; TGI (RXF 393 renal): > 100 µM; TGI (DU-145 prostate): > 100 µM; TGI (SK-MEL-2 melanoma): > 100 µM; TGI (OVCAR-3 ovarian): > 100 µM; TGI (SW-620 colon): > 100 µM; TGI (SK-MEL-5 melanoma): > 100 µM; TGI (MALME-3M melanoma): > 100 µM; TGI (NCI/ADR-RES ovarian): > 100 µM; TGI (SF-268 CNS): > 100 µM; TGI (OVCAR-8 ovarian): > 100 µM
